# Experimental data reported in US9062088B2, “CDK-inhibiting pyrrolopyrimidine carboxamide derivative or pharmaceutically acceptable salt thereof, and pharmaceutical composition containing the same as active ingredient for preventing or treating hepatocellular carcinoma” (SNU R&DB Foundation, priority 2010, dated 2015).
# Columns and labels:
# SNU-354 cells [1] = assay: Western blotting of PARP cleavage; type: cell-based, human; conditions: FIG. 17
# Protocol: (§1) After treating the compound of Example 2 to SNU-354 cells, cell pellet was lysed with lysis buffer (0.5% triton X-100, 20 mM Tris-HCl (pH 7.5), 2 mM magnesium chloride, 1 mM DTT, 1 mM EGTA, 50 mM β-glycerophosphate, 25 mM sodium fluoride, 1 mM Na3VO4, 2 μg/mL leupeptin, 2 μg/mL pepstatin A, 100 μg/mL phenylmethylsulfonyl fluoride, and 1 μg/mL antipain) at 4° C. for 1 hour, followed by quantification of protein. A proper amount of protein was electrophoresed on SDS-PAGE gel and then transferred onto polyvinylidene difluoride membrane (Millipore Co., Bedford, Mass.). The membrane was reacted in inhibiting solution (PBS, 5% skim milk, 0.1% tween-20) at room temperature for 1˜2 hours. The membrane was reacted with the primary antibody (goat anti-phospho-Rb, rabbit anti-nucleolin) diluted in the inhibiting solution (1:1000). Then, the membrane was washed with PBST, followed by reaction with the proper secondary antibody (horseradish peroxidase (HRP) conjugated) at room temperature for 1 hour.
# Experiment was performed by the same manner as described in step 2 of Experimental Example 2 except that rabbit anti-PARP was used as the primary antibody and the results are shown in FIG. 17.
# Cdk7 = assay: Western blotting of Cdk7 activity (phospho RNA Pol II Ser 5); type: cell-based, human; conditions: 0 nM = 100
# Protocol: as §1
# Experiment was performed by the same manner as described in step 2 of Experimental Example 1 except that rabbit anti-phospho RNA Pol II (Ser 5) and rabbit anti-phospho RNA Pol II (Ser 2) (from Bethyl, TX, USA) were used as primary antibodies. The results are shown FIG. 9˜FIG. 12, and Table 4 and Table 5.
# SNU-354 cells [2] = assay: MTT assay, cell viability; type: cell-based; conditions: Homo sapiens, SNU-354, read-out: Cell viability (%)
# Protocol: Cell viability was measured by MTT assay. SNU-354 cells in the log phase of cell growth curve were distributed in a 24-well plate at the density of 2×10^4 cells/well. […] After allowing enough time for reaction, MTT reagent (MTT dissolved in PBS at the concentration of 5 mg/mL) (Sigma-Aldrich, USA) was added to each well, followed by reaction at 37° C. for 3 hours. Then, the supernatant was eliminated and the precipitated formazan crystals were dissolved in dimethyl sulfoxide, followed by measurement of absorbance with ELISA plate reader.
# [3] = system: caspase-3 activity in SNU-354 cells; assay: Measurement of caspase-3 activity (Experimental Example 4); type: cell-based, human; set-up: unit not given here
# Protocol: SNU-354 cells treated with the compounds of Example 1˜Example 6 were lysed with lysis buffer (0.5% triton X-100, 20 mM Tris-HCl (pH 7.5), 2 mM magnesium chloride, 1 mM DTT, 1 mM EGTA, 50 mM β-glycerophosphate, 25 mM sodium fluoride, 1 mM Na3VO4, 2 μg/mL leupeptin, 2 μg/mL pepstatin A, 100 μg/mL phenylmethylsulfonyl fluoride, 1 μg/mL antipain). The protease analysis buffer necessary for the reaction (20 mM HEPES (pH 7.5), 10% glycerol, 2 mM DTT) was mixed with 20 μM Ac-DEVD-AMC (BD Biosciences, CA, USA) and cell lysates, followed by reaction at 37° C. for 1 hour. Upon completion of the reaction, caspase-3 activity was measured at 380 nm of excitation and 460 nm of emission with spectrofluorometer (TECAN, Switzerland) and the results are shown in FIG. 25 and Table 12.
# SNU-354 cells [4] = assay: 3H-thymidine incorporation assay; type: cell-based, human; conditions: 18˜24 hours
# Protocol: SNU-354 cells were distributed in a 6-well plate at the density of 5×10^4 cells/well, followed by culture in FBS-free medium for 24 hours. 24 hours later, the medium was replaced with the fresh one supplemented with FBS, the compounds of Examples 1 and 2 at different concentrations and 1 μCi/mL [^3H]dT (GE Healthcare, UK). 18˜24 hours later, the cells were washed with cold PBS and then fixed with cold 5% trichloroacetic acid. DNA was lysed in […] sodium hydroxide at 37° C. for 1 hour. Then, [^3H]dT incorporated during intracellular DNA synthesis was measured by LSC (liquid scintillation counting). Intracellular DNA synthesis measured above was used as index for the evaluation of cell viability.
# Cdk7/cyclin H/MAT1 = target: T1, Cdk7/cyclin H/MAT1 (Homo sapiens, UniProt P50613); assay: In vitro kinase assay of Cdk7, RNA Pol II-CTD-GST substrate; type: biochemical; conditions: 0 nM = 100
# T1 construct: purchased Upstate
# Protocol: To kinase assay buffer were added RNA Pol II-CTD-GST protein (Jena Bioscience, Germany) as a substrate, Cdk9/cyclin T1 or Cdk7/cyclin H/MAT1 recombinant protein (Upstate) as an enzyme, 2.5 μCi [γ-32P]ATP, and 100 μM MgAc/ATP. The total reaction volume was adjusted to 50 μl. Kinase assay reaction was induced at 30° C. for 20 minutes. Upon completion of the reaction, electrophoresis was performed on 8% SDS-polyacrylamide gel. The activities of Cdk7 and Cdk9 over the concentrations of the compounds of Example 1 and Example 2 were confirmed by autoradiography and the results are shown in FIG. 5˜FIG. 8 and Table 3.
# The intensity of bands was analyzed by densitometry (GS-800, Bio-Rad).
# SNU-354 cells [5] = assay: FACS analysis of sub G1 ratio (Experimental Example 1-6-3); type: cell-based, human
# Protocol: The cells were collected and washed with cold PBS, followed by reaction in 500 μl of cold 70% ethanol at 4° C. for overnight to fix the cells. The cells were washed with 500 μl of PBS three times, followed by reaction with 500 μl of PBS containing 50 μg/mL propidium iodide (P1) and 50 μl of 1 mg/mL RNAse A at room temperature for 30 minutes in the darkness. Fluorescence of the P1 stained cell was measured by using caliber flow cytometer and cell quest program (Becton Dickinson Immunocytometry Systems, CA, USA). Sub G1 ratio changes of HCC SNU-354 cells induced by the compounds of Examples 1 and 2 were measured by FACS analysis. The results are shown in FIG. 19, FIG. 20, Table 9 and Table 10.
# T1 sequence (P50613 whole entry): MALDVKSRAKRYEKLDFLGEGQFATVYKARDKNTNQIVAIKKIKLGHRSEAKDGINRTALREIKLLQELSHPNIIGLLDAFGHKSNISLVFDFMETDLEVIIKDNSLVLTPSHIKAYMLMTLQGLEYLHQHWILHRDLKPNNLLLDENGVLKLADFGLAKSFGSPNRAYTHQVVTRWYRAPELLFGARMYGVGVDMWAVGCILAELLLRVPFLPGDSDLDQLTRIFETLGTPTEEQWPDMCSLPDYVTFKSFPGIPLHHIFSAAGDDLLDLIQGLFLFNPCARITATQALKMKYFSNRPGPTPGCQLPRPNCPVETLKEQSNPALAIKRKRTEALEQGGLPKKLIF
# T1 sequence (P51946 whole entry partner): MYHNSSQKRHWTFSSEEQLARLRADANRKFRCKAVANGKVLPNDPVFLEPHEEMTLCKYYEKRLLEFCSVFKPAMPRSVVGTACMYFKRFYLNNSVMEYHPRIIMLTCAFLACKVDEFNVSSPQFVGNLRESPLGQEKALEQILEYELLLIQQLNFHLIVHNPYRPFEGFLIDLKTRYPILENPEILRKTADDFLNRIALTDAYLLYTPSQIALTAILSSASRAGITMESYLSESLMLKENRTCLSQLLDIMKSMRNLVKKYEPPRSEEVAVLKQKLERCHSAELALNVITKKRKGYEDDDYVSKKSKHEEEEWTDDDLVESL
# T1 sequence (P51948 whole entry partner): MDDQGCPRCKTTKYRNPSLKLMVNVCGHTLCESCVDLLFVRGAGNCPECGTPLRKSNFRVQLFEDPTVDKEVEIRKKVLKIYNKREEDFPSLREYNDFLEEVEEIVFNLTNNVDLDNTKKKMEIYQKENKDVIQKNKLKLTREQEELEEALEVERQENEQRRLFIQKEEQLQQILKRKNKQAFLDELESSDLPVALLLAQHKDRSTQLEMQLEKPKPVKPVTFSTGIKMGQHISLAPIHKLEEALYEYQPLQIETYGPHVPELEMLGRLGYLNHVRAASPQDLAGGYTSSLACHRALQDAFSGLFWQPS
Cdk7 activity (Cdk7/cyclin H/MAT1; 10 nM) [%],Cdk7 activity (Cdk7/cyclin H/MAT1; 100 nM) [%],Compound,"PARP cleavage, time from the treatment after which it was caused (SNU-354 cells [1]) [h]",Cdk7 activity (Cdk7; 0.1 nM) [%],Cdk7 activity (Cdk7; 0.5 nM) [%],Cdk7 activity (Cdk7; 1 nM) [%],Cdk7 activity (Cdk7; 5 nM) [%],Cdk7 activity (Cdk7; 10 nM) [%],Cdk7 activity (Cdk7; 50 nM) [%],viability at 0.5 µM (SNU-354 cells [2]) [%],viability at 1 µM (SNU-354 cells [2]) [%],viability at 2 µM (SNU-354 cells [2]) [%],viability at 5 µM (SNU-354 cells [2]) [%],viability at 10 µM (SNU-354 cells [2]) [%],viability at 50 µM (SNU-354 cells [2]) [%],Caspase-3 activity ([3]; 5 μM),Caspase-3 activity ([3]; 10 μM),^3H-thymidine incorporation (%) (SNU-354 cells [4]; 5.0 μM),^3H-thymidine incorporation (%) (SNU-354 cells [4]; 10.0 μM),^3H-thymidine incorporation (%) (SNU-354 cells [4]; 50.0 μM),further results
92.2,91.1,"CC(C)C(=O)OC[C@@H]1O[C@H](n2cnc(N)c3c(C(N)=O)c(Br)nc2-3)[C@H](O)[C@H]1O [Example 2, ((2S,3R,4R,5S)-5-(4-amino-6-bromo-5-carbamoyl-1H-pyrrolo[2,3-d]pyrimidin-1-yl)-3,4-dihydroxy-tetrahydrofuran-2-yl)methyl isobutyrate]",6,88.4,44.0,12.7,3.3,1.6,0.6,86.3,75.5,64.7,47.6,35.4,16.8,9.7,11.0,50.7,20.4,8,"Cdk7 activity (Cdk7/cyclin H/MAT1; 1000 nM): 6.5%; sub G1 ratio (%) (SNU-354 cells [5]; 0.1 μM, 24 hours, 0 μM = 3.0): 3.8%; sub G1 ratio (%) (SNU-354 cells [5]; 0.5 μM, 24 hours, 0 μM = 3.0): 39.6%; sub G1 ratio (%) (SNU-354 cells [5]; 1 μM, 24 hours, 0 μM = 3.0): 52.0%; sub G1 ratio (%) (SNU-354 cells [5]; 5 μM, 24 hours, 0 μM = 3.0): 69.8%; sub G1 ratio (%) (SNU-354 cells [5]; 10 μM, 24 hours, 0 μM = 3.0): 72.6%; sub G1 ratio (%) (SNU-354 cells [5]; 50 μM, 24 hours, 0 μM = 3.0): 73.1%; sub G1 ratio (%) (SNU-354 cells [5]; 50 μM, time 6 h, 0 h = 10.3): 51.6%; sub G1 ratio (%) (SNU-354 cells [5]; 50 μM, time 12 h, 0 h = 10.3): 67.6%; sub G1 ratio (%) (SNU-354 cells [5]; 50 μM, time 18 h, 0 h = 10.3): 72.3%; sub G1 ratio (%) (SNU-354 cells [5]; 50 μM, time 24 h, 0 h = 10.3): 81.2%; concentration at which sub G1 ratio was rapidly increased (SNU-354 cells [5]; 24 hours): 0.5 µM"
41.8,10.8,"NC(=O)c1c(Br)nc2n([C@H]3O[C@@H](CO)[C@H](O)[C@H]3O)cnc(N)c1-2 [Example 1, 4-amino-6-bromo-1-((2S,3R,4R,5S)-3,4-dihydroxy-5-(hydroxymethyl)-tetrahydrofuran-2-yl)-1H-pyrrolo[2,3-d]pyrimidine-5-carboxamide]",12,90.1,76.3,37.6,3.0,1.7,0.3,96.4,84.3,74,68,55.6,36.6,8.4,8.1,84.0,35.2,15.8,"Cdk7 activity (Cdk7/cyclin H/MAT1; 1000 nM): 5.8%; sub G1 ratio (%) (SNU-354 cells [5]; 0.1 μM, 24 hours, 0 μM = 3.0): 2.7%; sub G1 ratio (%) (SNU-354 cells [5]; 0.5 μM, 24 hours, 0 μM = 3.0): 3.2%; sub G1 ratio (%) (SNU-354 cells [5]; 1 μM, 24 hours, 0 μM = 3.0): 3.5%; sub G1 ratio (%) (SNU-354 cells [5]; 5 μM, 24 hours, 0 μM = 3.0): 28.1%; sub G1 ratio (%) (SNU-354 cells [5]; 10 μM, 24 hours, 0 μM = 3.0): 64.2%; sub G1 ratio (%) (SNU-354 cells [5]; 50 μM, 24 hours, 0 μM = 3.0): 71.1%; sub G1 ratio (%) (SNU-354 cells [5]; 50 μM, time 6 h, 0 h = 10.3): 29.1%; sub G1 ratio (%) (SNU-354 cells [5]; 50 μM, time 12 h, 0 h = 10.3): 51.8%; sub G1 ratio (%) (SNU-354 cells [5]; 50 μM, time 18 h, 0 h = 10.3): 71.7%; sub G1 ratio (%) (SNU-354 cells [5]; 50 μM, time 24 h, 0 h = 10.3): 78.1%; concentration at which sub G1 ratio was rapidly increased (SNU-354 cells [5]; 24 hours): 5 µM"
